# Molecular target: T1, Kv1.3 potassium channel (Homo sapiens, UniProt P22001)
# T1 construct: expressed in transfected cells
# Assay: Kv1.3 potassium channel blocker activity, automated whole-cell patch clamp (Patchliner) in CHO-K1 cells stably expressing Kv1.3
# Assay type: cell-based
# Conditions: not given
# Protocol: Example 82. Evaluation of Kv1.3 potassium channel blocker activities
# This assay is used to evaluate the disclosed compounds' activities as Kv1.3 potassium channel blockers.
# CHO-K1 cells stably expressing Kv1.3 were grown in DMEM containing 10% heat-inactivated FBS, 1 mM sodium pyruvate, 2 mM L-glutamine, and G418 (500 μg/ml).
# All compounds were dissolved in DMSO at 30 mM.
# The currents were evoked by applying 100 ms depolarizing pulses from −90 mV (holding potential) to +40 mV were applied with 0.1 Hz frequency. […] 10-second breaks were used between pulse trains (see Table A below).
# Data were sampled at 10 kHz without filtering. Passive leak currents were subtracted online using a P/4 procedure (HEKA Elektronik Dr. Schulze GmbH). […] Total compound incubation time before the next pulse train was not longer than 10 seconds. Peak current inhibition was observed during compound equilibration.
# T1 sequence (P22001 whole entry): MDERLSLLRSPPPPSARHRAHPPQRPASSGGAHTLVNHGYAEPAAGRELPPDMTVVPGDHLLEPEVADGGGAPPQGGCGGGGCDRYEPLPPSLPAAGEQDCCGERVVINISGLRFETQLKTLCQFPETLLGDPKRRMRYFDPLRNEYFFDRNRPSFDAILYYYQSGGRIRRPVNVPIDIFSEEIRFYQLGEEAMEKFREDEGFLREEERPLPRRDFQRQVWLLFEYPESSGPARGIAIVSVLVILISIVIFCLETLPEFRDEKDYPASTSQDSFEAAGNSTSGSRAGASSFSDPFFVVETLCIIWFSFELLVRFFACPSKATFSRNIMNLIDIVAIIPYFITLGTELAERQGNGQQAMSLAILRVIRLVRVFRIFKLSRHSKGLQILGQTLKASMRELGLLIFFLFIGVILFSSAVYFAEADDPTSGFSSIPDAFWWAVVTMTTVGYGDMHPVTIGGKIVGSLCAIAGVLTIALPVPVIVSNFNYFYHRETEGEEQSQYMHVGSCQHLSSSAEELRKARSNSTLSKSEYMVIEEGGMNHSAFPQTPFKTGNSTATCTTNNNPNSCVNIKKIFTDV
row,SMILES,IC50 [µM]
1,"Oc1cc(Cl)c(Cl)cc1[C@@H]1C[C@H]2CC[C@@H](C1)N2 (single isomer, unassigned; isomer 1) [Compound 15, 2-[8-azabicyclo[3.2.1]octan-3-yl]-4,5-dichlorophenol isomer 1]",< 10
2,"Oc1cc(Cl)c(Cl)cc1[C@H]1C[C@H]2CC[C@@H](C1)N2 (single isomer, unassigned; isomer 2) [Compound 11, 2-[8-azabicyclo[3.2.1]octan-3-yl]-4,5-dichlorophenol isomer 2]",< 10
3,"N#CC1(c2cc(Cl)c(Cl)cc2O)CCNCC1 [Compound 13, 4-(4,5-dichloro-2-hydroxyphenyl)piperidine-4-carbonitrile]",< 10
4,"Oc1cc(Cl)c(Cl)cc1C1=CC2CCC(C1)N2 (stereo not shown) [Compound 17, 2-[8-azabicyclo[3.2.1]oct-2-en-3-yl]-4,5-dichlorophenol]",< 10

# Same assay, conditions: CHO-K1 cells stably expressing Kv1.3; patch clamp, current inhibition; read-out: Kv1.3 IC50
row,SMILES,IC50 [µM]
1,"Oc1cc(Cl)c(Cl)cc1[C@@H]1CCNC[C@H]1O (relative stereo) [Compound 7, (3R,4R)-rel-4-(4,5-dichloro-2-hydroxyphenyl)piperidin-3-ol]",< 10
2,"NC[C@H]1CNCC[C@H]1c1cc(Cl)c(Cl)cc1O (relative stereo) [Compound 47, (3R,4S)-rel-2-[3-(aminomethyl)piperidin-4-yl]-4,5-dichlorophenol]",< 30
3,"NC[C@@H]1CNCC[C@H]1c1cc(Cl)c(Cl)cc1O (relative stereo) [Compound 48, (3R,4R)-rel-2-[3-(aminomethyl)piperidin-4-yl]-4,5-dichlorophenol]",< 10
4,"N[C@@H]1CNCC[C@H]1c1cc(Cl)c(Cl)cc1O (relative stereo) [Compound 49, (3R,4R)-rel-2-(3-aminopiperidin-4-yl)-4,5-dichlorophenol]",< 10
5,"NC(=O)[C@H]1CNCC[C@@H]1c1cc(Cl)c(Cl)cc1O (relative stereo) [Compound 50, (3R,4S)-rel-4-(4,5-dichloro-2-hydroxyphenyl)piperidine-3-carboxamide]",< 10
6,"N[C@H]1CNCC[C@H]1c1cc(Cl)c(Cl)cc1O (relative stereo) [Compound 51, (3R,4S)-rel-2-(3-aminopiperidin-4-yl)-4,5-dichlorophenol]",< 10
7,"NC(=O)[C@@H]1CNC[C@H]1c1cc(Cl)c(Cl)cc1O (relative stereo) [Compound 52, (3R,4S)-rel-4-(4,5-dichloro-2-hydroxyphenyl)pyrrolidine-3-carboxamide]",< 10
8,"COC(=O)[C@@H]1CNC[C@H]1c1cc(Cl)c(Cl)cc1O (relative stereo) [Compound 53, (3R,4S)-rel-methyl 4-(4,5-dichloro-2-hydroxyphenyl)pyrrolidine-3-carboxylate]",< 10
9,"O=C([C@H]1C[C@H](c2c(O)ccc(Cl)c2Cl)CCN1)N1CCOCC1 (relative stereo) [Compound 76, (2R,4R)-rel-3,4-dichloro-2-[2-(morpholine-4-carbonyl)piperidin-4-yl]phenol]",< 10
10,"CN(C)C(=O)[C@H]1C[C@@H](c2c(O)ccc(Cl)c2Cl)CCN1 (relative stereo) [Compound 77, (2R,4S)-rel-4-(2,3-dichloro-6-hydroxyphenyl)-N,N-dimethylpiperidine-2-carboxamide]",< 10
11,"O=C([C@H]1C[C@@H](c2c(O)ccc(Cl)c2Cl)CCN1)N1CCOCC1 (relative stereo) [Compound 80, (2R,4S)-rel-3,4-dichloro-2-[2-(morpholine-4-carbonyl)piperidin-4-yl]phenol]",< 10
12,"CN(C)C(=O)[C@H]1C[C@H](c2c(O)ccc(Cl)c2Cl)CCN1 (relative stereo) [Compound 82, (2R,4R)-rel-4-(2,3-dichloro-6-hydroxyphenyl)-N,N-dimethylpiperidine-2-carboxamide]",< 10
13,"Nc1nnc([C@H]2C[C@@H](c3c(O)ccc(Cl)c3Cl)CCN2)o1 (relative stereo) [Compound 103, 2-((2R,4S)-rel-2-(5-amino-1,3,4-oxadiazol-2-yl)piperidin-4-yl)-3,4-dichlorophenol]",< 10
14,"OC[C@H]1C[C@@H](c2cc(Cl)c(Cl)cc2O)CCN1 (single isomer, unassigned) [Compound 34]",< 10
15,"OC[C@@H]1C[C@H](c2cc(Cl)c(Cl)cc2O)CCN1 (single isomer, unassigned) [Compound 35]",< 10
16,"NC(=O)[C@@H]1CNCC[C@@H]1c1cc(Cl)c(Cl)cc1O (single isomer, unassigned) [Compound 56]",< 10
17,"NC(=O)[C@H]1CNCC[C@H]1c1cc(Cl)c(Cl)cc1O (single isomer, unassigned) [Compound 58]",< 1

row,SMILES,IC50 [µM]
1,"Oc1cc(Cl)c(Cl)cc1C1(O)CCNCC1 (single isomer, unassigned) [Compound 59, 4-(4,5-dichloro-2-hydroxyphenyl)piperidin-4-ol]",< 10
2,"O=C(NC1CNC1)[C@H]1CCC(c2c(O)ccc(Cl)c2Cl)N1 (single isomer, unassigned) [Compound 117]",< 30
3,"O=C(NC1CNC1)[C@@H]1CC[C@H](c2c(O)ccc(Cl)c2Cl)N1 (single isomer, unassigned) [Compound 119]",< 10
4,"O=C(NC1CNC1)[C@@H]1CC[C@@H](c2c(O)ccc(Cl)c2Cl)N1 (single isomer, unassigned) [Compound 120]",< 10
5,"O=C(NC1CNC1)C1CN[C@@H](c2c(O)ccc(Cl)c2Cl)C1 (single isomer, unassigned) [Compound 121]",< 1
6,"O=C(NC1CNC1)[C@@H]1CN[C@H](c2c(O)ccc(Cl)c2Cl)C1 (single isomer, unassigned) [Compound 123]",< 10
7,"O=C(NC1CNC1)[C@H]1CN[C@H](c2c(O)ccc(Cl)c2Cl)C1 (single isomer, unassigned) [Compound 124]",< 1
8,"NC(=O)C1CNC[C@H]1c1cc(Cl)c(Cl)cc1O (stereo in doubt) [Compound 64, (3R,4R)-rel-4-(4,5-dichloro-2-hydroxyphenyl)pyrrolidine-3-carboxamide]",< 10
9,"CC1(c2cc(Cl)c(Cl)cc2O)CCNCC1 [Compound 1, 4,5-dichloro-2-(4-methylpiperidin-4-yl)phenol]",< 10
10,"CC(=O)N1CCC(c2cc(Cl)c(Cl)cc2O)CC1 [Compound 10, 1-[4-(4,5-dichloro-2-hydroxyphenyl)piperidin-1-yl]ethan-1-one]",< 10
11,"Oc1cc(Cl)c(Cl)cc1C1=CCCNC1 [Compound 19, 4,5-dichloro-2-(1,2,3,6-tetrahydropyridin-5-yl)phenol]",< 10
12,"Oc1cc(Cl)c(Cl)cc1C1=CCNC1 [Compound 20, 4,5-dichloro-2-(2,5-dihydro-1H-pyrrol-3-yl)phenol]",< 10
13,"Oc1cc(Cl)c(Cl)cc1C1CNC1 [Compound 22, 2-(azetidin-3-yl)-4,5-dichlorophenol]",< 10
14,"OCC1(c2cc(Cl)c(Cl)cc2O)CCNCC1 [Compound 26, 4,5-dichloro-2-[4-(hydroxymethyl)piperidin-4-yl]phenol]",< 10
15,"Oc1cc(C(F)(F)F)c(Cl)cc1C1CCNCC1 [Compound 29, 4-chloro-2-(piperidin-4-yl)-5-(trifluoromethyl)phenol]",< 10
16,"NC1(CO)CCN(c2cc(Cl)c(Cl)cc2O)CC1 [Compound 33, 2-[4-amino-4-(hydroxymethyl)piperidin-1-yl]-4,5-dichlorophenol]",< 10
